How the values were obtained:
[1] = system: primary mouse hepatocytes; experiment: Gene expression (Affymetrix Mouse Genome 430 2.0) in primary mouse hepatocytes, true vs false GTX, 24 h and 48 h
[2] = in vivo; cited from earlier work
[3] = system: primary mouse hepatocytes

Oc1cccc2cccnc12 [8Q, 8-Hydroxyquinoline]
Gene expression AA561726 average [1]: 0.1739 | Gene expression AF000969 average [1]: −0.1809 | Gene expression AF022072 average [1]: 0.0814 | Gene expression AF033112 average [1]: −0.01703 | Gene expression AF055573 average [1]: −0.09457 | Gene expression AF069954 average [1]: 0.1841 | Gene expression AF297615 average [1]: −0.009333 | Gene expression AF335325 average [1]: 0.1418 | Gene expression AI594683 average [1]: 0.1235 | Gene expression AI747296 average [1]: −0.0009667 | Gene expression AK005731 average [1]: −0.03997 | Gene expression AK007854 average [1]: 0.05973 | Gene expression AK010447 average [1]: 0.06223 | Gene expression AK010738 average [1]: 0.3608 | Gene expression AK014608 average [1]: −0.2447 | Gene expression AK017734 average [1]: 0.0878 | Gene expression AK018383 average [1]: 0.0679 | Gene expression AK019979 average [1]: −0.2154 | Gene expression AV095209 average [1]: 0.2602 | Gene expression AV141095 average [1]: −0.1725 | Gene expression AV173869 average [1]: −0.02557 | Gene expression AV216768 average [1]: 0.1679 | Gene expression AV219418 average [1]: 0.4492 | Gene expression AV221299 average [1]: 0.1454 | Gene expression AV246296 average [1]: −0.1136 | Gene expression AV251625 average [1]: 0.03813 | Gene expression AV254764 average [1]: 0.02403 | Gene expression AV327248 average [1]: 0.1176 | Gene expression BB009155 average [1]: 0.006467 | Gene expression BB027848 average [1]: −0.06607 | Gene expression BB043558 average [1]: −0.2347 | Gene expression BB046347 average [1]: 0.1608 | Gene expression BB140436 average [1]: 0.2861 | Gene expression BB204486 average [1]: 0.1305 | Gene expression BB223872 average [1]: 0.05753 | Gene expression BB246912 average [1]: 0.3325 | Gene expression BB275142 average [1]: 0.0112 | Gene expression BB458460 average [1]: 0.1317 | Gene expression BB463610 average [1]: −0.2369 | Gene expression BB730977 average [1]: 0.3298 | Gene expression BB743970 average [1]: 0.1936 | Gene expression BB770528 average [1]: −0.01823 | Gene expression BB781615 average [1]: −0.006367 | Gene expression BC003284 average [1]: 0.09 | Gene expression BC004827 average [1]: −0.07043 | Gene expression BC005552 average [1]: 0.1343 | Gene expression BC006713 average [1]: −0.1035 | Gene expression BC010318 average [1]: 0.0565 | Gene expression BC012247 average [1]: −0.006933 | Gene expression BC012955 average [1]: −0.3049 | Gene expression BC013893 average [1]: −0.1654 | Gene expression BC017615 average [1]: −0.4904 | Gene expression BC019379 average [1]: −0.1555 | Gene expression BC019882 average [1]: −0.1719 | Gene expression BC021352 average [1]: 0.4721 | Gene expression BC022148 average [1]: 0.04497 | Gene expression BC025169 average [1]: 0.02213 | Gene expression BC026131 average [1]: −0.0852 | Gene expression BC027026 average [1]: 0.2479 | Gene expression BC027121 average [1]: −0.1207 | Gene expression BC027185 average [1]: −0.1209 | Gene expression BE956581 average [1]: 0.403 | Gene expression BF719766 average [1]: −0.2717 | Gene expression BG065754 average [1]: −0.0909 | Gene expression BG066491 average [1]: −0.1771 | Gene expression BG076151 average [1]: −0.1887 | Gene expression BG076333 average [1]: −0.05333 | Gene expression BG797099 average [1]: 0.0658 | Gene expression BG967046 average [1]: −0.09257 | Gene expression BI651416 average [1]: 0.06777 | Gene expression BI966443 average [1]: 0.1335 | Gene expression BM198879 average [1]: −0.05617 | Gene expression BM200015 average [1]: 0.08087 | Gene expression BM230508 average [1]: 0.07603 | Gene expression BM936480 average [1]: 0.0483 | Gene expression BQ174991 average [1]: −0.1546 | Gene expression L21027 average [1]: 0.2905 | Gene expression NM_007556 average [1]: 0.0638 | Gene expression NM_007980 average [1]: −0.5064 | Gene expression NM_007987 average [1]: 0.03487 | Gene expression NM_008522 average [1]: 0.0486 | Gene expression NM_008935 average [1]: 0.4082 | Gene expression NM_009897 average [1]: 0.111 | Gene expression NM_011075 average [1]: 0.1618 | Gene expression NM_011176 average [1]: 0.1358 | Gene expression NM_011316 average [1]: 0.06377 | Gene expression NM_012006 average [1]: 0.5806 | Gene expression NM_013642 average [1]: 0.2659 | Gene expression NM_013738 average [1]: −0.305 | Gene expression NM_013929 average [1]: 0.033 | Gene expression NM_018881 average [1]: −0.1679 | Gene expression NM_019738 average [1]: −0.9543 | Gene expression NM_030697 average [1]: −0.0261 | Gene expression NM_053122 average [1]: −0.142 | Gene expression NM_134147 average [1]: −0.1757 | Gene expression NM_134188 average [1]: −0.07067 | Gene expression X62701 average [1]: 0.154 | Gene expression data AF000969 (Cadps2) [1]: −0.3717 | Gene expression data AF022072 (Grb10) [1]: −0.4275 | Gene expression data AF065917 (Lif) [1]: −0.2101 | Gene expression data AF297615 (Ggta1) [1]: −0.0684 | Gene expression data AI594683 (Dmn) [1]: −0.09783 | Gene expression data AI596632 (Ptprg /// LOC632664) [1]: −0.227 | Gene expression data AI987929 (Ndrg1) [1]: 0.4414 | Gene expression data AK004419 (Fbxl17) [1]: 0.01113 | Gene expression data AK005731 (1700007K13Rik) [1]: 0.1143 | Gene expression data AK007766 (1810044A24Rik) [1]: −0.0226 | Gene expression data AK007854 (1810053B23Rik) [1]: −0.076 | Gene expression data AK009736 (Gpr137b /// LOC664862 /// LOC673335) [1]: 0.5337 | Gene expression data AK010447 (Smyd3) [1]: 0.07697 | Gene expression data AK014608 (4632434l11Rik) [1]: −0.1225 | Gene expression data AK019979 (2610528E23Rik) [1]: 0.08447 | Gene expression data AV095209 (Mthfd1l) [1]: 0.1564 | Gene expression data AV141095 (1110033M05Rik) [1]: −0.07047 | Gene expression data AV173571 (1700106N22Rik) [1]: 0.04197 | Gene expression data AV219418 (Ldhb) [1]: 0.0363 | Gene expression data AV223474 (Zdhhc14) [1]: −0.06957 | Gene expression data AV298304 (Homez) [1]: −0.03607 | Gene expression data AV327248 (Zfp365 /// LOC674611) [1]: −0.082 | Gene expression data AV377066 (9130221J18Rik) [1]: −0.3212 | Gene expression data AW240761 (Tbc1d5) [1]: −0.2006 | Gene expression data AW543460 (Pard3) [1]: −0.0366 | Gene expression data AW543723 [1]: −0.0994 | Gene expression data AW986246 (Maoa) [1]: 0.3198 | Gene expression data BB027848 (4732466D17Rik) [1]: −0.2807 | Gene expression data BB043558 (9230114K14Rik) [1]: −0.3734 | Gene expression data BB275142 (AW456874) [1]: −0.02507 | Gene expression data BB308836 (Ppm1l) [1]: 0.2558 | Gene expression data BB318221 (Zdhhc14) [1]: 0.1138 | Gene expression data BB463610 (4632434l11Rik) [1]: −0.2188 | Gene expression data BB526605 (Mipol1) [1]: −0.01453 | Gene expression data BB770528 (Rai2) [1]: 0.1386 | Gene expression data BB821363 (Scfd2) [1]: 0.1765 | Gene expression data BC004827 (Psat1) [1]: −0.1011 | Gene expression data BC008626 (Icam1) [1]: −0.4422 | Gene expression data BC010462 (BC010462) [1]: 0.05663 | Gene expression data BC012247 (Dcxr) [1]: −0.0122 | Gene expression data BC012260 (Psmf1) [1]: 0.2545 | Gene expression data BC015270 (Hist2h3c2) [1]: −0.03353 | Gene expression data BC016073 (Cdkal1) [1]: −0.05183 | Gene expression data BC016265 (Ube2e2) [1]: −0.2547 | Gene expression data BC019882 (Acaa1b) [1]: 0.0605 | Gene expression data BC025501 (Aaas) [1]: 0.1979 | Gene expression data BC025837 (Sbk1) [1]: −0.04227 | Gene expression data BC025915 (Cova1) [1]: −0.02643 | Gene expression data BC026422 (Tgm1) [1]: 0.2873 | Gene expression data BF719766 (Thyn1) [1]: −0.1935 | Gene expression data BG065754 (Ccng1) [1]: −0.2279 | Gene expression data BG066903 (Kif16b) [1]: −0.1277 | Gene expression data BG069873 (Gnb1l) [1]: −0.04763 | Gene expression data BG070887 (Gtdc1) [1]: −0.04273 | Gene expression data BG076151 (Ppm1d) [1]: 0.07243 | Gene expression data BG261907 (Large) [1]: −0.1486 | Gene expression data BI651416 (Cdc42bpg) [1]: 0.1364 | Gene expression data BI660702 (Ell3) [1]: 0.05113 | Gene expression data BM198879 (Ercc5) [1]: −0.006767 | Gene expression data BM230508 (A030007D23Rik) [1]: 0.03497 | Gene expression data NM_007987 (Fas) [1]: −0.05523 | Gene expression data NM_008522 (Ltf) [1]: −0.05963 | Gene expression data NM_008576 (Abcc1) [1]: 0.106 | Gene expression data NM_011176 (St14) [1]: 0.05783 | Gene expression data NM_011316 (Saa4) [1]: 0.0831 | Gene expression data NM_012006 (Acot1) [1]: −0.2532 | Gene expression data NM_013866 (Zfp385) [1]: 0.05893 | Gene expression data NM_018770 (Igsf4a) [1]: 0.1391 | Gene expression data NM_021451 (Pmaip1) [1]: −0.5295 | Gene expression data NM_025770 (Atg10) [1]: −0.1372 | Gene expression data NM_028803 (Gbe1) [1]: −0.04593 | Gene expression data NM_030697 (Ankrd47) [1]: 0.2204 | Gene expression data NM_053168 (Trim11) [1]: −0.0493 | Gene expression data NM_134188 (Acot2) [1]: −0.2881 | Gene expression data Y15910 (Diap2) [1]: −0.2692 | GTX in vivo [2]: − | Gene expression data AF204959 (Cyp3a25 /// LOC622249) [3]: −0.4178
